Source: patent US20100168102A9, “Amide Derivatives as Kinase Inhibitors” (Devgen NV, priority 2005, published 2010)
Where a name gives a salt, the structure may show the parent alone. Read-outs that look alike come from different tables or passages of the source.

Columns and labels:
PKC epsilon = target: T1, PKC epsilon (Homo sapiens, UniProt Q02156); experiment: Biochemical assay for PKC epsilon (fluorescence polarization, Protein Kinase C Assay Kit, Red); conditions: read-out: IC50 μM PKCε
T1 construct: purchased Invitrogen P2282
T1 sequence (Q02156 1-737): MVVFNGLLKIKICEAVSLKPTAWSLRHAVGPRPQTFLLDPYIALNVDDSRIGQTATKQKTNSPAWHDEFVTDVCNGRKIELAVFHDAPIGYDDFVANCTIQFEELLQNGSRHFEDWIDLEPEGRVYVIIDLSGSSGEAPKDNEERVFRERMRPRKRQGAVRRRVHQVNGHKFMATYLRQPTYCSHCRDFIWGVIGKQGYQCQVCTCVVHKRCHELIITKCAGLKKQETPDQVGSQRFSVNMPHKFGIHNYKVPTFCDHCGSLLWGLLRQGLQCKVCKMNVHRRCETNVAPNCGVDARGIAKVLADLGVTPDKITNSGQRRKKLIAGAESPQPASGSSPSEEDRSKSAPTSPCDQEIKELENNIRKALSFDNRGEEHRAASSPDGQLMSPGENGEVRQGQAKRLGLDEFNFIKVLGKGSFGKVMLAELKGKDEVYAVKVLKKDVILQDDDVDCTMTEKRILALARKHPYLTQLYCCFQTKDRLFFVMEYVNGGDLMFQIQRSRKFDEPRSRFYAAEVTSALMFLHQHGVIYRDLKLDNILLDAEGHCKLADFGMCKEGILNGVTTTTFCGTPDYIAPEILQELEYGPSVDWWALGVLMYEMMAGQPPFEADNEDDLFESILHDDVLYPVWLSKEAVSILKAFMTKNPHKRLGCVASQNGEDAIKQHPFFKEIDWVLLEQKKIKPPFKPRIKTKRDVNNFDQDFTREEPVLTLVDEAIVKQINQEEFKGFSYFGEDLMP
In short: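 Read-out was fluorescence-polarization competition between phosphorylated substrate and a rhodamine PKC tracer for an anti-phosphoserine antibody, added with EDTA stop after an 80 min room-temperature kinase reaction with ATP and protein substrate (Mg2+/Ca2+ buffer). Enzyme (10 ng/ml final) was preincubated with compound for 30 min.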

PKCε = experiment: Reporter assay (PathDetect trans reporter, Elk/SEAP) in reporter cell-lines over-expressing PKCε; assay type: cell-based
From the text: Whereas the reporter assay is focused on PKCε specific inhibition in a recombinant system, the monocytes assay is a biomarker assay that can be performed in isolated monocytes, full blood and in vivo to follow the pharmacological reduction of cytokine production:
The reporter assay exploits the effect of over-expressed PKCε on kinase activation and phosphorylation of a transcription factor to evaluate the potency and selectivity of PKCε inhibitors in a cellular context.
It has been shown by jae-Won Soh et al (MCB, February 1999 p 1313-1324) that over-expression of PKC epsilon results in the activation of MAPK-pathway (c-raf/MEK/ERK) leading to the activation of Elk transcription factor. This event can be monitored using the PathDetect trans reporter assay system (Stratagene): pFA2-ELK codes for a fusion protein between the Gal4 DNA binding domain and the transactivation domain of Elk which drives the expression of a secreted alkaline phosphatase (SEAP) reporter gene.
Compounds are incubated with reporter cell-lines either over-expressing PKCε, leading to continued activation of the kinase, or mock transfected cells. Inhibition of the PKCε induced signal in the absence of an effect on the basal level (mock transfected cells) is indicative for selective PKCε inhibition.

human ROCKα/ROCKII mix = target: T2, human ROCKα/ROCKII mix (Homo sapiens, UniProt O75116); experiment: Biochemical assay for ROCK (fluorescence polarization, ROCK IMAP Kit)
T2 construct: purchased Upstate Biotechnology 14-451

[1] = Table 2, compounds of Formula XIII
[2] = compounds of Formula XIV, Table 3

T2 sequence (O75116 11-552 limits assumed): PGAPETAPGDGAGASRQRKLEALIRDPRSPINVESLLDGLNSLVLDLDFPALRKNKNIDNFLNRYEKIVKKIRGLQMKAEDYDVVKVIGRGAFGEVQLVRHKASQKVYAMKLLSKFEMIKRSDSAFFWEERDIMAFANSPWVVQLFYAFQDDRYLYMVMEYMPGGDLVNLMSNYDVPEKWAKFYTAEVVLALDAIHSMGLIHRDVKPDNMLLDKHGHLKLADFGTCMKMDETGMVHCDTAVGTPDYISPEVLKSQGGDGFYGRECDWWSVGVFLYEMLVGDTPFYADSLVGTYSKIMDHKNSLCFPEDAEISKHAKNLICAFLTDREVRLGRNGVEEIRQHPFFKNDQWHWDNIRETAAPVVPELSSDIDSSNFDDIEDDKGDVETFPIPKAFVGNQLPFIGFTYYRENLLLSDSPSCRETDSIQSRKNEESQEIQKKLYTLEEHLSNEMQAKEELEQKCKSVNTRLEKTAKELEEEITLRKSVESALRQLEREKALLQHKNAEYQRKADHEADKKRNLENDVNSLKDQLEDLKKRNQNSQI

Molecule | IC50 (PKC epsilon) [µM] | IC50 (human ROCKα/ROCKII mix) [µM] | also measured
NC(CNC(=O)C1(c2ccc(F)cc2)CC1)c1ccc(C(=O)Nc2ccncc2)cc1 (stereo not drawn) [Compound 340, 4-(1-Amino-2-{[1-(4-fluoro-phenyl)-cyclopropanecarbonyl]-amino}-ethyl)-N-pyridin-4-yl-benzamide] | – | – | IC50 (PKC epsilon; [1]): < 0.05 µM; IC50 (PKCε): < 5 µM
NC(CNC(=O)C1CCCCc2ccc(F)cc21)c1ccc(C(=O)Nc2ccncc2)cc1 (stereo not drawn) [Compound 356, 3-Fluoro-6,7,8,9-tetrahydro-5H-benzocycloheptene-5-carboxylic acid {2-amino-2-[4-(pyridin-4-ylcarbamoyl)-phenyl]-ethyl}-amide] | – | – | IC50 (PKC epsilon; [1]): < 0.05 µM; IC50 (human ROCKα/ROCKII mix; [1]): 0.05 to 0.5 µM; IC50 (PKCε): < 5 µM
N[C@H](CC(=O)N[C@@H]1CCCc2ccccc21)c1ccc(C(=O)Nc2ccncc2)cc1 [Compound 373, 4-{(R)-1-Amino-2-[(R)-(1,2,3,4-tetrahydro-naphthalen-1-yl)carbamoyl]-ethyl}-N-pyridin-4-yl-benzamide dihydrochloric acid salt] | < 0.05 | < 0.05 | IC50 (PKCε): < 5 µM
NC(c1ccc(C(=O)Nc2ccncc2)cc1)C1CCCN1C(=O)Cc1ccc(F)c(Cl)c1 (stereo not drawn) [Compound 603, 4-(Amino-{1-[2-(3-chloro-4-fluoro-phenyl)-acetyl]-pyrrolidin-2-yl}-methyl)-N-pyridin-4-yl-benzamide] | 0.5 to 5 | 0.05 to 0.5 | –
NC(c1ccc(C(=O)Nc2ccncc2)cc1)C1CCCN1C(=O)C1(c2ccc(Cl)cc2F)CC1 (stereo not drawn) [Compound 605, 4-(Amino-{1-[1-(4-chloro-2-fluoro-phenyl)-cyclopropanecarbonyl]-pyrrolidin-2-yl}-methyl)-N-pyridin-4-yl-benzamide] | 0.5 to 5 | 0.5 to 5 | –
CC(C)(C(=O)N1CCCC1C(N)c1ccc(C(=O)Nc2ccncc2)cc1)c1ccc(F)c(Cl)c1 (stereo not drawn) [Compound 606, 4-(Amino-{1-[2-(3-chloro-4-fluoro-phenyl)-2-methyl-propionyl]-pyrrolidin-2-yl}-methyl)-N-pyridin-4-yl-benzamide] | 0.5 to 5 | 0.5 to 5 | –
NC(c1ccc(C(=O)Nc2ccncc2)cc1)C1CCCN1C(=O)C1(c2ccc(F)c(Cl)c2)CC1 (stereo not drawn) [Compound 607, 4-(Amino-{1-[1-(3-chloro-4-fluoro-phenyl)-cyclopropanecarbonyl]-pyrrolidin-2-yl}-methyl)-N-pyridin-4-yl-benzamide] | 0.5 to 5 | 0.5 to 5 | –
NC(c1ccc(C(=O)Nc2ccncc2)cc1)C1CCCN1C(=O)C1CCc2ccccc21 (stereo not drawn) [Compound 608, 4-{Amino-[1-(indane-1-carbonyl)-pyrrolidin-2-yl]-methyl}-N-pyridin-4-yl-benzamide] | 0.5 to 5 | 0.5 to 5 | –
NC(c1ccc(C(=O)Nc2ccncc2)cc1)C1CCCN1C(=O)C1CC(=O)c2ccccc21 (stereo not drawn) [Compound 609, 4-{Amino-[1-(3-oxo-indane-1-carbonyl)-pyrrolidin-2-yl]-methyl}-N-pyridin-4-yl-benzamide] | 0.5 to 5 | 0.5 to 5 | –
NC(c1ccc(C(=O)Nc2ccncc2)cc1)C1CCCN1C(=O)C1CCc2cc(F)ccc21 (stereo not drawn) [Compound 610, 4-{Amino-[1-(5-fluoro-indane-1-carbonyl)-pyrrolidin-2-yl]-methyl}-N-pyridin-4-yl-benzamide] | 5 to 50 | 0.5 to 5 | –
NC(c1ccc(C(=O)Nc2ccncc2)cc1)C1CCCN1C(=O)C1CCCc2ccccc21 (stereo not drawn) [Compound 613, 4-{Amino-[1-(1,2,3,4-tetrahydro-naphthalene-1-carbonyl)-pyrrolidin-2-yl]-methyl}-N-pyridin-4-yl-benzamide] | 0.5 to 5 | 0.5 to 5 | –
NC(c1ccc(C(=O)Nc2ccncc2)cc1)C1CCCN1C(=O)C1CCOc2ccccc21 (stereo not drawn) [Compound 615, 4-{Amino-[1-(chroman-4-carbonyl)-pyrrolidin-2-yl]-methyl}-N-pyridin-4-yl-benzamide] | 5 to 50 | 0.5 to 5 | –
NC(c1ccc(C(=O)Nc2ccncc2)cc1)C1CCCN1C(=O)C1CCOc2ccc(Cl)cc21 (stereo not drawn) [Compound 616, 4-{Amino[1-(6-chloro-chroman-4-carbonyl)-pyrrolidin-2-yl]-methyl}-N-pyridin-4-benzamide] | 0.5 to 5 | 0.5 to 5 | –
NC(c1ccc(C(=O)Nc2ccncc2)cc1)C1CCCN1C(=O)C1CCOc2ccc(F)cc21 (stereo not drawn) [Compound 617, 4-{Amino[1-(6-fluoro-chroman-4-carbonyl)-pyrrolidin-2-yl]-methyl}-N-pyridin-4-benzamide] | 0.5 to 5 | 0.5 to 5 | –
NC(c1ccc(C(=O)Nc2ccncc2)cc1)C1CCCN1C(=O)C1CCSc2ccccc21 (stereo not drawn) [Compound 618, 4-{Amino[1-(thiochroman-4-carbonyl)-pyrrolidin-2-yl]-methyl}-N-pyridin-4-yl-benzamide] | 0.5 to 5 | 0.5 to 5 | –
NC(c1ccc(C(=O)Nc2ccncc2)cc1)C1CCCN1C(=O)C1CCSc2ccc(F)cc21 (stereo not drawn) [Compound 619, 4-{Amino[1-(6-fluoro-thiochroman-4-carbonyl)-pyrrolidin-2-yl]-methyl}-N-pyridin-4-yl-benzamide] | 0.5 to 5 | 0.5 to 5 | –
NC(c1ccc(C(=O)Nc2ccncc2)cc1)C1CCCN1C(=O)C1CCCCc2ccc(F)cc21 (stereo not drawn) [Compound 620, 4-{Amino-[1-(3-fluoro-6,7,8,9-tetrahydro-5H-benzocycloheptene-5-carbonyl)-pyrrolidin-2-yl]-methyl}-N-pyridin-4-yl-benzamide] | 5 to 50 | 5 to 50 | –
NC(c1ccc(C(=O)Nc2ccncc2)cc1)C1CCCN1C(=O)C1CCCc2sccc21 (stereo not drawn) [Compound 621, 4-{Amino-[1-(4,5,6,7-tetrahydro-benzo[b]thiophene-4-carbonyl)-pyrrolidin-2-yl]-methyl}-N-pyridin-4-yl-benzamide] | 0.5 to 5 | 0.05 to 0.5 | –
CC(C)(NC(=O)CC(N)c1ccc(C(=O)Nc2ccncc2)cc1)c1ccc(Cl)cc1 (stereo not drawn) [Compound 622, 4-{1-Amino-2-[1-(4-chloro-phenyl)-1-methyl-ethylcarbamoyl]-ethyl}-N-pyridin-4-yl-benzamide] | – | – | IC50 (PKC epsilon; [2]): 0.05 to 0.5 µM; IC50 (human ROCKα/ROCKII mix; [2]): 0.05 to 0.5 µM
Bicyclo[4.2.0]octa-1(6),2,4- triene-7-carboxylic acid {2- amino-2-[4-(pyridin-4- ylcarbamoyl)-phenyl]-ethyl}- methyl-amide [Compound 451] | 5 to 50 | 0.05 to 0.5 | –
Chroman-4-carboxylic acid {2-amino-2-[4-(pyridin-4- ylcarbamoyl)-phenyl]-ethyl}- methyl-amide [Compound 514] | 5 to 50 | 0.5 to 5 | –
Indan-1-carboxylic acid {2- amino-2-[4-(pyridin-4- ylcarbamoyl)-phenyl]-ethyl}- methyl-amide [Compound 507] | 5 to 50 | 0.5 to 5 | –
N-{2-Amino-2-[4-(pyridin-4- ylcarbamoyl)-phenyl]-ethyl}- nicotinamide [Compound 107] | – | – | IC50 (PKC epsilon; [1]): 0.5 to 5 µM; IC50 (human ROCKα/ROCKII mix; [1]): 0.5 to 5 µM
